Experimental data as given in PubChem BioAssay AID330 (DTP/NCI, 2004).
Values joined by “and” are separate entries in the source; they are usually repeats but may differ in a detail not shown here. Equal entries are not always repeated. Toxic doses and inconclusive results are not listed. How the source made its calls: active means survival T/C of 150% or more; inactive means T/C below 125% in these data.

Test system: P388 leukemia ip, CD2F1 mice, survival T/C
Experiment: NCI In Vivo Anticancer Drug Screen. Data for tumor model P388 Leukemia (intraperitoneal) in CD2F1 (CDF1) mice
Conditions: endpoint: median survival time, higher = longer survival
How it was run: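 Mice carrying the transplanted tumor received test compound or vehicle. Survival was recorded in each group, and the value is the treated-group measurement divided by that of the vehicle-treated control group.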

[1] = dose: 60.0 mg/kg/injection, schedule: Q01DX005 (ip), vehicle: saline with Tween-80
[2] = dose: 120.0 mg/kg/injection, schedule: Q01DX005 (ip), vehicle: saline with Tween-80
[3] = dose: 240.0 mg/kg/injection, schedule: Q01DX005 (ip), vehicle: saline with Tween-80
[4] = dose: 100.0 mg/kg/injection, schedule: Q04DX003 (ip), vehicle: saline with Tween-80
[5] = dose: 200.0 mg/kg/injection, schedule: Q04DX003 (ip), vehicle: saline with Tween-80
[6] = dose: 100.0 mg/kg/injection, schedule: Q04DX003 (ip), vehicle: Klucel (hydroxypropylcellulose) (HPC)
[7] = dose: 200.0 mg/kg/injection, schedule: Q04DX003 (ip), vehicle: Klucel (hydroxypropylcellulose) (HPC)
[8] = dose: 50.0 mg/kg/injection, schedule: Q01DX009 (ip), vehicle: saline
[9] = dose: 100.0 mg/kg/injection, schedule: Q01DX009 (ip), vehicle: saline
[10] = dose: 200.0 mg/kg/injection, schedule: Q01DX009 (ip), vehicle: saline
[11] = dose: 60.0 mg/kg/injection, schedule: Q01DX005 (ip), vehicle: Klucel (hydroxypropylcellulose) (HPC)
[12] = dose: 120.0 mg/kg/injection, schedule: Q01DX005 (ip), vehicle: Klucel (hydroxypropylcellulose) (HPC)
[13] = dose: 240.0 mg/kg/injection, schedule: Q01DX005 (ip), vehicle: Klucel (hydroxypropylcellulose) (HPC)
[14] = dose: 25.0 mg/kg/injection, schedule: Q01DX009 (ip), vehicle: saline with Tween-80
[15] = dose: 50.0 mg/kg/injection, schedule: Q01DX009 (ip), vehicle: saline with Tween-80
[16] = dose: 100.0 mg/kg/injection, schedule: Q01DX009 (ip), vehicle: saline with Tween-80

Measured: T/C

Cc1ccc2nc(CC(=O)c3ccc(F)cc3)c(=O)[nH]c2c1
inactive: [1] 100 % of control | [2] 100 % of control | [3] 107 % of control

C=C1C(=O)OC2C1C(OC(=O)/C(C)=C/CO)C/C(C)=C/CCC1(CO)OC21 (stereo not drawn)
inactive: dose: 0.5 mg/kg/injection, schedule: Q01DX009 (ip), vehicle: Klucel (hydroxypropylcellulose) (HPC) 100 % of control | dose: 1.0 mg/kg/injection, schedule: Q01DX009 (ip), vehicle: Klucel (hydroxypropylcellulose) (HPC) 91 % of control | dose: 2.0 mg/kg/injection, schedule: Q01DX009 (ip), vehicle: Klucel (hydroxypropylcellulose) (HPC) 100 % of control | dose: 4.0 mg/kg/injection, schedule: Q01DX009 (ip), vehicle: Klucel (hydroxypropylcellulose) (HPC) 103 % of control and 113 % of control | dose: 8.0 mg/kg/injection, schedule: Q01DX009 (ip), vehicle: Klucel (hydroxypropylcellulose) (HPC) 105 % of control | dose: 16.0 mg/kg/injection, schedule: Q01DX009 (ip), vehicle: Klucel (hydroxypropylcellulose) (HPC) 118 % of control

CCCCCCC(Cn1ccnc1)c1ccc(Br)cc1 (stereo not drawn)
inactive: [4] 100 % of control | [5] 91 % of control

CC1(C)NC(=O)NC(=O)C1Br (stereo not drawn)
inactive: dose: 50.0 mg/kg/injection, schedule: Q01DX005 (ip), vehicle: saline with Tween-80 99 % of control | dose: 100.0 mg/kg/injection, schedule: Q01DX005 (ip), vehicle: saline with Tween-80 102 % of control | dose: 200.0 mg/kg/injection, schedule: Q01DX005 (ip), vehicle: saline with Tween-80 103 % of control

Cc1ccc(NC(=O)C(C)C)cc1
inactive: [6] 100 % of control | [7] 101 % of control | dose: 400.0 mg/kg/injection, schedule: Q04DX003 (ip), vehicle: Klucel (hydroxypropylcellulose) (HPC) 109 % of control

Clc1ccccc1C(c1ccccc1)(c1ccccc1)n1ccnc1
inactive: [8] 113 % of control | [9] 113 % of control | [10] 113 % of control

CC(=O)c1c(C)cc2cc(O)cc(OC3OC(CO)C(O)C(O)C3O)c2c1O (stereo not drawn)
inactive: dose: 1.5 mg/kg/injection, schedule: Q01DX005 (ip), vehicle: saline + alcohol 96 % of control | dose: 3.0 mg/kg/injection, schedule: Q01DX005 (ip), vehicle: saline + alcohol 103 % of control | dose: 6.0 mg/kg/injection, schedule: Q01DX005 (ip), vehicle: saline + alcohol 92 % of control | dose: 12.0 mg/kg/injection, schedule: Q01DX005 (ip), vehicle: saline + alcohol 108 % of control and 94 % of control | dose: 24.0 mg/kg/injection, schedule: Q01DX005 (ip), vehicle: saline + alcohol 100 % of control | dose: 48.0 mg/kg/injection, schedule: Q01DX005 (ip), vehicle: saline + alcohol 99 % of control

CCC(=O)CC1(C(=O)OC)NC(=S)NC(=O)C1C#N (stereo not drawn)
inactive: [11] 102 % of control | [12] 103 % of control | [13] 100 % of control

COc1ccc(CCN2C(=O)C(=O)N(c3ccc(C)cc3)C2=O)cc1OC
inactive: dose: 50.0 mg/kg/injection, schedule: Q01DX009 (ip), vehicle: Klucel (hydroxypropylcellulose) (HPC) 96 % of control | dose: 100.0 mg/kg/injection, schedule: Q01DX009 (ip), vehicle: Klucel (hydroxypropylcellulose) (HPC) 97 % of control | dose: 200.0 mg/kg/injection, schedule: Q01DX009 (ip), vehicle: Klucel (hydroxypropylcellulose) (HPC) 104 % of control

Cc1nn(-c2ccccc2)c2c1C(=O)CC(C)O2 (stereo not drawn)
inactive: [11] 93 % of control | [12] 91 % of control

CC(C)(C)SC(=O)CCl
inactive: [4] 116 % of control | [5] 89 % of control

CC1COC2(CCC(=CBr)CC2)O1 (stereo not drawn)
inactive: dose: 100.0 mg/kg/injection, schedule: Q01DX001 (ip), vehicle: Klucel (hydroxypropylcellulose) (HPC) 96 % of control | dose: 200.0 mg/kg/injection, schedule: Q01DX001 (ip), vehicle: Klucel (hydroxypropylcellulose) (HPC) 107 % of control | dose: 400.0 mg/kg/injection, schedule: Q01DX001 (ip), vehicle: Klucel (hydroxypropylcellulose) (HPC) 100 % of control

Nc1cccc2[nH]c(=O)c3ccccc3c12
inactive: [1] 93 % of control | [2] 105 % of control | [3] 106 % of control

CC1OC(C)(C2CC2)OC1C (stereo not drawn)
inactive: [6] 95 % of control | [7] 100 % of control

C/C(=C\C1C/C(=C/CCc2ccoc2)C(=O)O1)CCCc1ccoc1 (stereo not drawn)
inactive: dose: 25.0 mg/kg/injection, schedule: Q01DX009 (ip), vehicle: saline + alcohol 100 % of control | dose: 50.0 mg/kg/injection, schedule: Q01DX009 (ip), vehicle: saline + alcohol 107 % of control

COc1cc(C(Nc2ncccn2)c2cc3c(cc2OC(C)=O)OCO3)cc(OC)c1OC (stereo not drawn)
inactive: [1] 98 % of control | [2] 98 % of control | [3] 95 % of control

CCOC(=O)CCCCCO[Si](c1ccccc1)(c1ccccc1)C(C)(C)C
inactive: [1] 110 % of control | [2] 99 % of control | [3] 88 % of control

O=C(Nc1ccccc1C(F)(F)F)N(CCO)C1CCCCC1
inactive: [1] 103 % of control | [2] 103 % of control | [3] 103 % of control

COc1cc(NCCN(C)C(C)Cc2ccccc2)c2ncccc2c1 (stereo not drawn)
inactive: dose: 50.0 mg/kg/injection, schedule: Q01DX005 (ip), vehicle: saline 106 % of control | dose: 100.0 mg/kg/injection, schedule: Q01DX005 (ip), vehicle: saline 104 % of control

Oc1ccc(C2(c3ccc(O)c(Cl)c3)CC3CCC2C3)cc1Cl (stereo not drawn)
inactive: dose: 0.79 mg/kg/injection, schedule: Q01DX009 (ip), vehicle: saline with Tween-80 103 % of control and 111 % of control | dose: 1.56 mg/kg/injection, schedule: Q01DX009 (ip), vehicle: saline with Tween-80 103 % of control and 116 % of control | dose: 3.12 mg/kg/injection, schedule: Q01DX009 (ip), vehicle: saline with Tween-80 103 % of control and 105 % of control | dose: 6.25 mg/kg/injection, schedule: Q01DX009 (ip), vehicle: saline with Tween-80 111 % of control and 94 % of control | dose: 12.5 mg/kg/injection, schedule: Q01DX009 (ip), vehicle: saline with Tween-80 97 % of control | [14] 98 % of control

CS\C(N)=N/N=C/C(C)=N/N=C(/N)SC
inactive: dose: 50.0 mg/kg/injection, schedule: Q04DX002 (ip), vehicle: saline with Tween-80 101 % of control | dose: 100.0 mg/kg/injection, schedule: Q04DX002 (ip), vehicle: saline with Tween-80 100 % of control | dose: 200.0 mg/kg/injection, schedule: Q04DX002 (ip), vehicle: saline with Tween-80 100 % of control

O=C1NC(=O)C2C1C(C(=O)O)C1C3C(=O)NC(=O)C3C1C2C(=O)O (stereo not drawn)
inactive: [14] 91 % of control | [15] 94 % of control | [16] 97 % of control | dose: 200.0 mg/kg/injection, schedule: Q01DX009 (ip), vehicle: saline with Tween-80 91 % of control and 92 % of control | dose: 400.0 mg/kg/injection, schedule: Q01DX009 (ip), vehicle: saline with Tween-80 96 % of control

Cc1cc2nc(/N=C/c3nc(O)c(C)[nH]3)[nH]c2cc1C
inactive: dose: 30.0 mg/kg/injection, schedule: Q01DX005 (ip), vehicle: Klucel (hydroxypropylcellulose) (HPC) 103 % of control | [11] 98 % of control | [12] 99 % of control | [13] 104 % of control

O=Cc1ccc2c(c1)OCCOCCOCCOCCO2
inactive: dose: 25.0 mg/kg/injection, schedule: Q01DX009 (ip), vehicle: saline 100 % of control and 97 % of control | [8] 99 % of control and 111 % of control | [9] 105 % of control and 94 % of control | [10] 102 % of control and 92 % of control

N#CS.[Cr+3].[NH-]CC[NH-].[NH-]CC[NH-].[NH-]CC[NH-]
inactive: [15] 104 % of control | [16] 95 % of control | [4] 100 % of control | [5] 104 % of control
